Measured values from patent publication US20250186379A1, “METHODS AND AGENTS FOR DECREASING INSULIN RESISTANCE” (Whitehead Institute for Biomedical Research, priority 2021, published 2025).
“Also recorded” adds a separate entry of the source.

Assays:
Type in all cases: cell-based, human
[1] = tested on: IR condensates; assay: tc-PALM of IR cluster/condensate dynamics in HepG2 cells expressing IR-Dendra2; conditions: insulin sensitive cells; 20 mM H2O2
Experimental: Widefield Live-cell super-resolution imaging was performed in a photo-activation localization microscopy (PALM) approach using a Nikon Eclipse Ti microscope with a 100× oil immersion objective. The 405 nm and 561 nm laser beams were combined in an external platform with customized power densities to image Dendra2-tagged molecules as previously reported (56). Cells were maintained at 37° C. in a temperature-controlled platform during imaging, and the CO2 level was maintained at 5% by Leibovitz's L-15 Medium with no phenol red (ThermoFisher #21083027). In each imaging cycle, a 2400-frame video stream including a (256 pixel)2 region of interest (ROI) was recorded in 20 Hz acquisition rate with the EM-gain setting as 1000 on an Andor iXon Ultra 897 EMCCD. Each pixel conjugates with a (160 nm)2 area on the sample side. After PALM imaging, the Hoechst-stained nuclei of the same ROI were imaged with stronger 405 nm excitation through DAPI filter.
Detection localization. For each frame of a raw image, Gaussian particles were identified by pixelwise test of hypotheses, whose peak positions were individually fitted at subpixel resolution by maximum-likelihood regression with Gauss-Newton method (91). An additional deflation loop was performed to avoid missing dimmer particles when they were overshadowed by neighboring brighter ones. This multi-particle detection localization procedure has been integrated in a published, open-source MATLAB software called MTT (91).
Spatial clustering. DBSCAN and “manual selection” hybridized approach was applied to group spatially clustered detections via the qSR software (92). Firstly, DBSCAN was performed to generalize a proposal map of spatially clustered detections. Given that IR condensates can be tiny and transient, a “loose” parameter setting was used when performing the DBSCAN (length-scale=120 nm, N_min=4). This parameter combination was determined by comparing the rendered super-resolved reconstructions with the color-coded cluster maps until the clustering results visually make sense for most ROIs. Secondly, individual clusters were manually selected based on the clustering proposal map from last step. Some custom MATLAB code was used to reconstruct the IR distribution of each ROI superposed with the corresponding nuclei image, which was further cross-compared with the corresponding cluster map to determine which region each cluster belongs to (i.e., plasma-membrane, cytoplasm, or nucleus).
Temporal clustering. For each spatial cluster, time-correlated PALM (tc-PALM) analysis was performed along the time axis to extract the truly colocalized, time-correlated multimolecule bursting events (11, 13-14). The lifetime of a burst is simply defined as the timespan from the first to the last detections. More details about the quantitative validations and statistics of tc-PALM analysis can be found in NOTES and FIG. 11.
Widefield, live-cell, super-resolution imaging was performed in a photo-activation localization microscopy (PALM) approach using a Nikon Eclipse Ti microscope with a 100× oil immersion objective. The 405 nm and 561 nm laser beams were combined in an external platform with customized power densities to image Dendra2-tagged molecules as previously reported^24. Cells were cultured on imaging dishes (MatTek, P35G-1.5-20-C) and then imaged while maintaining both the temperature at 37° C. with a temperature-controlled platform and the level of CO2 at 5% with Leibovitz's L-15 Medium with no phenol red (Thermo Fisher, 21083027). During each imaging cycle, a 2400-frame video stream including a (256 pixel)^2 region of interest (ROI) was recorded in 20 Hz acquisition rate with the EM-gain setting as 1000 on an Andor iXon Ultra 897 EMCCD. Each pixel conjugates with a (160 nm)^2 area on the sample side. After PALM imaging, the Hoechst-stained nuclei of the same ROI were imaged using a stronger 405 nm excitation through DAPI filter. […] Following a 5-minute wait, the cells were imaged for 15-20 minutes.

[2] = tested on: transcriptional condensates at SMAD7; assay: IR-GFP and SMAD7 intronic RNA FISH colocalization in HepG2 cells; conditions: insulin sensitive cells; H2O2; 3 nM insulin 5 min (FIG. 6E)
[3] = tested on: IR condensates; assay: Imaging of IR puncta/condensates (immunofluorescence, IR-GFP) in HepG2 cells
Experimental: For insulin sensitivity and resistance experiments in HepG2 cells, cells were washed with EMEM once and cultured in EMEM for two days. […] To wash out insulin, cells were washed in EMEM seven times, which includes three quick washes, three 5 min washes and a long 20 minute-wash in EMEM at 37° C. In order to investigate insulin response, cells were acutely treated for 5 min with insulin diluted in EMEM supplemented with 1.25% fatty acid-free BSA at 37° C. with 5% CO2 in a humidified incubator.
Metformin (SIGMA, D150959-5G) was resuspended in sterile water to a concentration of 1M and diluted to the reported concentrations in the figures in cell media. […]
HepG2 cells, human liver spheroids and human tissue liver sections were fixed in 4% PFA (VWR, BT140770-10X10) in PBS for 10 min at room temperature. Cells were washed in PBS three times for 5 min and then blocked with 4% IgG-free BSA (VWR, 102643-516) for 15-60 min at room temperature. Cells were then incubated with 1:500 primary antibody in 4% IgG-free BSA at 4° C. overnight. The next day, cells were washed three times with PBS and incubated with 1:500 secondary antibodies in 4% IgG-free BSA at room temperature for 1 hr covered in foil. Cells were washed three times with PBS for 5 min. DNA was stained using 1:5000 Hoechst in PBS for 5 min at RT. Cells were washed three times with PBS for 5 min, stored at 4° C. until imaging. For tissue sections, samples were mounted using Vectashield mounting media (Vector Laboratories, Inc, H-1000). LSM880 microscope with Airyscan detector (ZEISS) was used for image acquisition. Images were then processed using Fiji/ImageJ v2.1.0/153c.
Cells expressing endogenous IR tagged with GFP were grown on 35 mm glass bottom dishes (MatTek Corporation, P35G-1.5-20-C). Cells were imaged at 37° C. using the SM880 Microscope with Airyscan detector with 63× objective and Zen Black software (ZEISS) at the W.M. Keck Microscopy Facility, MIT. Images were then processed using Fiji/ImageJ v2.1.0/153c.
To quantify IR fluorescent signal in puncta, Fiji/ImageJ v2.1.0/153c was used. A circle or an oval was drawn around IR puncta using the oval selection tool and the average fluorescence intensity in the circle/oval (=in the puncta) was determined using the measure tool on Fiji. Background was then subtracted as previously described. To quantify IR fluorescent signal at puncta in various cellular compartments, applicant identified the location of the plasma membrane, cytoplasm, nucleus and RNA FISH spots as follows. The plasma membrane location was identified based on IR immunofluorescence signal, IR-GFP fluorescent signal or CK18 immunofluorescence signal or cell edge. The nucleus was determined by the Hoechst stain for immunofluorescence and tc-PALM experiments or by IR-GFP fluorescence when HepG2 cells expressing IR-GFP were imaged. Given the overlap between Hoechst fluorescence and GFP fluorescence, artefactual green fluorescence coming from the Hoechst confounded IR puncta identification in the nucleus. Since the differences in IR puncta intensity and concentration between cytoplasm and nucleus in HepG2 cells was clear, nuclear outline was easily drawn based on IR-GFP fluorescent signal. Cytoplasm was considered the region between the plasma membrane and the nucleus. RNA FISH spots were identified based on RNA FISH probe fluorescence. Within the FISH spot, IR intensity was measured using the measure tool.
To estimate the number of IR puncta at the plasma membrane, cytoplasm, nucleus or in entire cells, IR puncta were initially counted in a cell slice using Fiji. The number obtained from the cell slice was then multiplied based on the estimated size of the plasma membrane, cytoplasm, nucleus or entire cell, which were obtained considering the length and width of the cell under investigation and the estimated height (˜5 um). […]

Compound | IR condensate dynamics [1] | IR incorporation in transcriptional condensates [2] | incorporation of IR into condensates with insulin stimulation ([3]; insulin sensitive cells, 20 mM H2O2 for 30 min) | IR condensates defects (signal intensity and lifetime) ([3]; insulin-resistant cells, 1 mM NAC 24 hours (FIGS. 19E-19F, 40B))
OO [H2O2, reference compound] | caused reduced IR condensate dynamics; also recorded: altered IR condensate dynamics | caused a reduction in IR incorporation in transcriptional condensates | caused a reduction in the incorporation of IR into condensates with insulin stimulation | 
CC(=O)N[C@@H](CS)C(=O)O [NAC, N-acetyl cysteine, reference compound] |  |  |  | partially rescued IR condensates defects
